How the values were obtained:
[1] = system: ABUTH (Abutilon theophrasti); assay: Postemergence herbicidal evaluation; assay type: in vivo, Medic.
Procedure, shortened: (§1)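 Visual 0–9 injury scores versus control plants, covering stand, vigour, malformation, size, chlorosis and general appearance, taken four to five weeks post-spray and averaged over replicate tests. Plants were sprayed at roughly two weeks old and held on greenhouse benches.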

[2] = system: AMBEL (Ambrosia artemisifolia); assay: Postemergence herbicidal evaluation; assay type: in vivo, L.
Procedure, shortened: as §1

[3] = system: CASOB (Cassia obtusifolia); assay: Postemergence herbicidal evaluation; assay type: in vivo, L.
Procedure, shortened: as §1

[4] = system: CHEAL (Chenopodium album); assay: Postemergence herbicidal evaluation; assay type: in vivo, L.
Procedure, shortened: as §1

[5] = system: GALAP (Galium aparine); assay: Postemergence herbicidal evaluation; assay type: in vivo
Procedure, shortened: as §1

[6] = system: IPOHE (Ipomoea hederacea); assay: Postemergence herbicidal evaluation; assay type: in vivo, (L.) Jacq.
Procedure, shortened: as §1

[7] = system: ECHCG (Echinochloa crus-galli); assay: Postemergence herbicidal evaluation; assay type: in vivo, (L.) Beau
Procedure, shortened: as §1

[8] = system: SETVI (Setaria viridis); assay: Postemergence herbicidal evaluation; assay type: in vivo, (L.) Beau
Procedure, shortened: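 Postemergence foliar spray on two-week-old seedlings, dose equivalent to about 0.0040 to 1.000 kg/ha. Ratings use a 0-9 visual scale relative to control at four to five weeks.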

[9] = system: GLXMAW (Soybean, Williams); assay: Postemergence herbicidal evaluation; assay type: in vivo, Glycine max, (L.) Merr. cv Williams
Procedure, shortened: as §1

[10] = system: ORYSAT (Rice, Tebonnet); assay: Postemergence herbicidal evaluation; assay type: in vivo, Oryza sativa, (L.) Tebonnet
Procedure, shortened: as §1

[11] = system: TRZAWR (Wheat, Winter, cv Riband); assay: Postemergence herbicidal evaluation; assay type: in vivo, Triticum aestivum
Procedure, shortened: as §1

[12] = system: ZEAMX (Corn, Field); assay: Postemergence herbicidal evaluation; assay type: in vivo, Zea mays, L.
Procedure, shortened: as §1

[13] = system: ABUTH (Abutilon theophrasti); assay: Preemergence herbicidal evaluation; assay type: in vivo, Medic.; conditions: preemergence, rated 4-5 weeks after treatment
[14] = system: AMBEL (Ambrosia artemisifolia); assay: Preemergence herbicidal evaluation; assay type: in vivo, L.; conditions: preemergence, rated 4-5 weeks after treatment
Procedure, shortened: (§2)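 Rating 0–9, visual, vs control; 4–5 wk after spraying seeded cups with compound in aq. acetone; conventional greenhouse care.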

[15] = system: CASOB (Cassia obtusifolia); assay: Preemergence herbicidal evaluation; assay type: in vivo, L.; conditions: preemergence, rated 4-5 weeks after treatment
Procedure, shortened: as §2

[16] = system: CHEAL (Chenopodium album); assay: Preemergence herbicidal evaluation; assay type: in vivo, L.; conditions: preemergence, rated 4-5 weeks after treatment
Procedure, shortened: as §2

[17] = system: GALAP (Galium aparine); assay: Preemergence herbicidal evaluation; assay type: in vivo; conditions: preemergence, rated 4-5 weeks after treatment
Procedure, shortened: as §2

[18] = system: IPOHE (Ipomoea hederacea); assay: Preemergence herbicidal evaluation; assay type: in vivo, (L.) Jacq.; conditions: preemergence, rated 4-5 weeks after treatment
[19] = system: ECHCG (Echinochloa crus-galli); assay: Preemergence herbicidal evaluation; assay type: in vivo, (L.) Beau; conditions: preemergence, rated 4-5 weeks after treatment
Procedure, shortened: as §2

[20] = system: SETVI (Setaria viridis); assay: Preemergence herbicidal evaluation; assay type: in vivo, (L.) Beau; conditions: preemergence, rated 4-5 weeks after treatment
Procedure, shortened: as §2

[21] = system: GLXMAW (Soybean, Williams); assay: Preemergence herbicidal evaluation; assay type: in vivo, Glycine max, (L.) Merr. cv Williams; conditions: preemergence, rated 4-5 weeks after treatment
[22] = system: ORYSAT (Rice, Tebonnet); assay: Preemergence herbicidal evaluation; assay type: in vivo, Oryza sativa, (L.) Tebonnet; conditions: preemergence, rated 4-5 weeks after treatment
[23] = system: TRZAWR (Wheat, Winter, cv Riband); assay: Preemergence herbicidal evaluation; assay type: in vivo, Triticum aestivum; conditions: preemergence, rated 4-5 weeks after treatment
Procedure, shortened: as §2

[24] = system: ZEAMX (Corn, Field); assay: Preemergence herbicidal evaluation; assay type: in vivo, Zea mays, L.; conditions: preemergence, rated 4-5 weeks after treatment
[25] = system: ECHORC (Echinochloa oryzoides); assay: Flooded paddy, preemergence weed control; assay type: in vivo, Echinochloa oryzoides (Ard.) Fritsch.; conditions: rate 0.1250 kg/ha, rated 3-4 weeks after treatment, 0-9 rating scale
Procedure, shortened: (§3)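 Greenhouse paddy test, preemergence. Seeds planted in the top 0.5 cm of silt loam soil, which remained flooded at 1.5–3 cm depth. Scored 0-9 by visual comparison with control.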

[26] = system: CYPIR (Cyperus iria); assay: Flooded paddy, preemergence weed control; assay type: in vivo; conditions: rate 0.1250 kg/ha, rated 3-4 weeks after treatment, 0-9 rating scale
Procedure, shortened: as §3

[27] = system: CYPSE (Cyperus serotinus); assay: Flooded paddy, preemergence weed control; assay type: in vivo, Rottb.; conditions: rate 0.1250 kg/ha, rated 3-4 weeks after treatment, 0-9 rating scale
Description: Results of herbicide evaluation are expressed on a rating scale (0-9). The scale is based upon a visual observation of plant stand, vigor, malformation, size, chlorosis and overall plant appearance as compared with a control.
Preemergence herbicidal activity under flooded paddy conditions is determined as follows: plant seeds or propagating organs are planted in the top 0.5 cm of silt loam soil in 32 oz. plastic containers with a diameter of 10.5 cm and no drainage holes. Water is added to these containers and maintained at 1.5 to 3 cm above the soil surface for the duration of the experiment. The test compounds are applied as aqueous/acetone mixtures 50/50 v/v pipetted directly into the flood water to give the equivalent of about 0.0080 to 0.1250 kg/ha of active ingredient. The treated containers are placed on greenhouse benches and cared for in accordance with conventional greenhouse procedures. Three to four weeks after treatment, the test is terminated and each container is examined and herbicidal effect rated according to the rating system provided in Example 87.

[28] = system: MOOVA (Monochoria vaginalis); assay: Flooded paddy, preemergence weed control; assay type: in vivo, Presl.; conditions: rate 0.1250 kg/ha, rated 3-4 weeks after treatment, 0-9 rating scale
Procedure, shortened: as §3

[29] = system: SAGPY (Sagittaria pygmaea); assay: Flooded paddy, preemergence weed control; assay type: in vivo, L.; conditions: rate 0.1250 kg/ha, rated 3-4 weeks after treatment, 0-9 rating scale
Procedure, shortened: as §3

[30] = system: ORYSAT (Rice, Tebonnet); assay: Flooded paddy, post-transplant rice tolerance; assay type: in vivo, Oryza sativa, (L.) Tebonnet; conditions: flooded paddy, post-transplant rice; rate 0.1250 kg/ha; rated 3-4 weeks after treatment; 0-9 rating scale
Procedure, shortened: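 Scores (0-9) reflect visual injury relative to untreated plants in flooded silt loam. Each pot held two transplanted ten-day-old seedlings under 1.5 to 3 cm standing water in the greenhouse.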

**Q.** What does the source list for `Cc1nnc(-c2nsc3ccc(-n4c(=O)cc(C(F)(F)F)n(C)c4=O)cc23)o1` [Compound 16, 1-methyl-3-[3-(5-methyl-1,3,4-oxadiazol-2-yl)-1,2-benzisothiazol-5-yl]-6-(trifluoromethyl)uracil]?
**A.** Postemergence herbicidal rating, ABUTH ([1]; rate 0.1250 kg/ha): 4.5; Postemergence herbicidal rating, AMBEL ([2]; rate 0.1250 kg/ha): 4.5; Postemergence herbicidal rating, CASOB ([3]; rate 0.1250 kg/ha): 3.5; Postemergence herbicidal rating, CHEAL ([4]; rate 0.1250 kg/ha): 3.5; Postemergence herbicidal rating, GALAP ([5]; rate 0.1250 kg/ha): 3.0; Postemergence herbicidal rating, IPOHE ([6]; rate 0.1250 kg/ha): 4.5; Postemergence herbicidal rating, ECHCG ([7]; rate 0.1250 kg/ha): 1.5; Postemergence herbicidal rating, SETVI ([8]; rate 0.1250 kg/ha): 4.5; Postemergence herbicidal rating, GLXMAW ([9]; rate 0.1250 kg/ha): 5.8; Postemergence herbicidal rating, ORYSAT ([10]; rate 0.1250 kg/ha): 3.0; Postemergence herbicidal rating, TRZAWR ([11]; rate 0.1250 kg/ha): 3.0; Postemergence herbicidal rating, ZEAMX ([12]; rate 0.1250 kg/ha): 4.3; ABUTH preemergence herbicidal rating ([13]; Rate 0.2500 kg/ha): 9.0; AMBEL preemergence herbicidal rating ([14]; Rate 0.2500 kg/ha): 9.0; CASOB preemergence herbicidal rating ([15]; Rate 0.2500 kg/ha): 9.0; CHEAL preemergence herbicidal rating ([16]; Rate 0.2500 kg/ha): 9.0; GALAP preemergence herbicidal rating ([17]; Rate 0.2500 kg/ha): 7.0; IPOHE preemergence herbicidal rating ([18]; Rate 0.2500 kg/ha): 9.0; ECHCG preemergence herbicidal rating ([19]; Rate 0.2500 kg/ha): 9.0; SETVI preemergence herbicidal rating ([20]; Rate 0.2500 kg/ha): 9.0; GLXMAW preemergence herbicidal rating ([21]; Rate 0.2500 kg/ha): 7.5; ORYSAT preemergence herbicidal rating ([22]; Rate 0.2500 kg/ha): 7.0; TRZAWR preemergence herbicidal rating ([23]; Rate 0.2500 kg/ha): 7.0; ZEAMX preemergence herbicidal rating ([24]; Rate 0.2500 kg/ha): 7.5; herbicidal rating, ECHORC [25]: 8.0; herbicidal rating, CYPIR [26]: 8.5; herbicidal rating, CYPSE [27]: 6.0; herbicidal rating, MOOVA [28]: 9.0; herbicidal rating, SAGPY [29]: 4.5; herbicidal rating, ORYSAT (rice tolerance) [30]: 5.5

**Q.** Which “Postemergence herbicidal rating, ABUTH” value ([1]; rate 0.0620 kg/ha) does the source give for `Cn1c(C(F)(F)F)cc(=O)n(-c2cc3c(-c4ccccn4)nsc3cc2F)c1=O` [Compound 25, 3-[6-fluoro-3-(2-pyridyl)-1,2-benzisothiazol-5-yl]-1-methyl-6-(trifluoromethyl)uracil] here?
**A.** 9.0

**Q.** What about the “Postemergence herbicidal rating, AMBEL” value ([2]; rate 0.0620 kg/ha) of the same compound?
**A.** 9.0

**Q.** What about the “Postemergence herbicidal rating, CASOB” value ([3]; rate 0.0620 kg/ha) of the same compound?
**A.** 9.0

**Q.** And the “Postemergence herbicidal rating, CHEAL” value ([4]; rate 0.0620 kg/ha)?
**A.** 9.0

**Q.** And the “Postemergence herbicidal rating, GALAP” value ([5]; rate 0.0620 kg/ha)?
**A.** 4.0

**Q.** What about the “Postemergence herbicidal rating, IPOHE” value ([6]; rate 0.0620 kg/ha) of the same compound?
**A.** 9.0

**Q.** What about the “Postemergence herbicidal rating, ECHCG” value ([7]; rate 0.0620 kg/ha) of the same compound?
**A.** 3.0

**Q.** And the “Postemergence herbicidal rating, SETVI” value ([8]; rate 0.0620 kg/ha)?
**A.** 9.0

**Q.** What about the “Postemergence herbicidal rating, GLXMAW” value ([9]; rate 0.0620 kg/ha) of the same compound?
**A.** 9.0

**Q.** And the “Postemergence herbicidal rating, ORYSAT” value ([10]; rate 0.0620 kg/ha)?
**A.** 3.0

**Q.** What about the “Postemergence herbicidal rating, TRZAWR” value ([11]; rate 0.0620 kg/ha) of the same compound?
**A.** 4.5

**Q.** And the “Postemergence herbicidal rating, ZEAMX” value ([12]; rate 0.0620 kg/ha)?
**A.** 7.0

**Q.** What about the “ABUTH preemergence herbicidal rating” value ([13]; Rate 0.1250 kg/ha) of the same compound?
**A.** 9.0

**Q.** What about the “AMBEL preemergence herbicidal rating” value ([14]; Rate 0.1250 kg/ha) of the same compound?
**A.** 9.0

**Q.** What about the “CASOB preemergence herbicidal rating” value ([15]; Rate 0.1250 kg/ha) of the same compound?
**A.** 9.0

**Q.** What about the “CHEAL preemergence herbicidal rating” value ([16]; Rate 0.1250 kg/ha) of the same compound?
**A.** 9.0

**Q.** And the “GALAP preemergence herbicidal rating” value ([17]; Rate 0.1250 kg/ha)?
**A.** 5.0

**Q.** And the “IPOHE preemergence herbicidal rating” value ([18]; Rate 0.1250 kg/ha)?
**A.** 9.0

**Q.** What about the “ECHCG preemergence herbicidal rating” value ([19]; Rate 0.1250 kg/ha) of the same compound?
**A.** 9.0

**Q.** And the “SETVI preemergence herbicidal rating” value ([20]; Rate 0.1250 kg/ha)?
**A.** 9.0

**Q.** What about the “GLXMAW preemergence herbicidal rating” value ([21]; Rate 0.1250 kg/ha) of the same compound?
**A.** 7.0

**Q.** What about the “ORYSAT preemergence herbicidal rating” value ([22]; Rate 0.1250 kg/ha) of the same compound?
**A.** 9.0

**Q.** And the “TRZAWR preemergence herbicidal rating” value ([23]; Rate 0.1250 kg/ha)?
**A.** 9.0

**Q.** And the “ZEAMX preemergence herbicidal rating” value ([24]; Rate 0.1250 kg/ha)?
**A.** 8.0

**Q.** And the “herbicidal rating, ECHORC” value [25]?
**A.** 9.0

**Q.** And the “herbicidal rating, CYPIR” value [26]?
**A.** 9.0

**Q.** And the “herbicidal rating, CYPSE” value [27]?
**A.** 9.0

**Q.** What about the “herbicidal rating, MOOVA” value [28] of the same compound?
**A.** 9.0

**Q.** And the “herbicidal rating, SAGPY” value [29]?
**A.** 9.0

**Q.** What about the “herbicidal rating, ORYSAT (rice tolerance)” value [30] of the same compound?
**A.** 9.0

Reference: US6706663B2, “Herbicidal 3-heterocyclic substituted benzisothiazole and benzisoxazole compounds” (Wyeth, priority 2000, dated 2004)
